Experimental data taken from patent publication US11377442B2, “Small molecule agonists and antagonists of NR2F6 activity” (ZANDER THERAPEUTICS, INC., priority 2016, dated 2022).

Key:
Assay type in all cases: cell-based
NR2F6 = molecular target: T1, NR2F6 (Homo sapiens, UniProt P10588); assay: NR2F6 agonist screening, Firefly signal cmpd/DMSO; settings: for Firefly F4, cmpd/DMSO (mean): Table 14; for activity (in words): screening result
T1 construct: expressed in transfected cells; also transient transfection
T1 sequence (P10588 1-404): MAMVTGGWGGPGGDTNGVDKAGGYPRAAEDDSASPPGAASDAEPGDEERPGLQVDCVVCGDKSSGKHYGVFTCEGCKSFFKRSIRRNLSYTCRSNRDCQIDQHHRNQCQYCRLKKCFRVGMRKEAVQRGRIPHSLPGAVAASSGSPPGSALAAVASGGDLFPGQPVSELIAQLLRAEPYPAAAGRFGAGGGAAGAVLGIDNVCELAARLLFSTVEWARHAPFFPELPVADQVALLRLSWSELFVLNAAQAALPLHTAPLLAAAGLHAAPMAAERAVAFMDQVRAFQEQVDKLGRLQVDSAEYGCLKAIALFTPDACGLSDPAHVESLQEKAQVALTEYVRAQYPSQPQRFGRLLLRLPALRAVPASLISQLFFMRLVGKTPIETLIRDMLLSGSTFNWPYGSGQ

Renilla = Renilla signal in NR2F6 agonist screening, cmpd/DMSO; settings: for fold induction at 2 µM / fold induction at 10 µM / fold induction at 40 µM: Renilla, Table 14, read-out: Renilla F4, cmpd/DMSO (mean)
HEK293 pGL4 = assay: Firefly_pGL signal, cmpd/DMSO (pGL4 control cells); settings: Homo sapiens, HEK293, Table 14, read-out: Firefly pGL4, cmpd/DMSO (mean)

Compound	Firefly F4, cmpd/DMSO (mean) (NR2F6; 2 uM)	Firefly F4, cmpd/DMSO (mean) (NR2F6; 10 uM)	Firefly F4, cmpd/DMSO (mean) (NR2F6; 40 uM)	fold induction at 2 µM (Renilla; 2 uM)	fold induction at 10 µM (Renilla; 10 uM)	fold induction at 40 µM (Renilla; 40 uM)	fold induction at 2 µM (HEK293 pGL4)	fold induction at 10 µM (HEK293 pGL4)	fold induction at 40 µM (HEK293 pGL4)	other results
Cc1ccc(NC(=O)c2noc3c2CC(C(C)(C)C)CC3)cc1C (stereo not shown) [Compound C303]	1.2	0.9	0.9	1	0.8	1	1.1	1.1	1.1	–
CCn1cc2c(n1)c(=O)n(Cc1ccccc1)c(=O)n2CC(=O)Nc1ccc(Br)cc1 [Compound L1]	0.9	0.5	0.5	0.8	0.8	0.7	0.8	0.4	0.8	–
Cc1cc(C)n2nc(CNS(=O)(=O)c3ccc(F)cc3)nc2n1 [Compound E12]	0.7	0.9	0.5	0.7	0.7	1	0.9	0.8	1	–
COc1ccc(-c2noc(Cn3ncccc3=O)n2)cc1 [Compound Z97]	–	–	–	–	–	–	–	–	–	Firefly, cmpd/DMSO (mean) (NR2F6): 2.1; NR2F6_full (stable, clone F4), cmpd/DMSO Firefly (NR2F6; 2 uM): 2.3; NR2F6_full (transient), cmpd/DMSO Firefly (NR2F6; 2 uM): 2.4; NR2F6_full (stable, clone F4), cmpd/DMSO Firefly (NR2F6; 10 uM): 2.2; NR2F6_full (transient), cmpd/DMSO Firefly (NR2F6; 10 uM): 2.8; NR2F6_full (stable, clone F4), cmpd/DMSO Firefly (NR2F6; 40 uM): 1.5; NR2F6_full (transient), cmpd/DMSO Firefly (NR2F6; 40 uM): 2.3; NR2F6_full (stable, clone F4), cmpd/DMSO Renilla (Renilla; 2 uM): 1.1; NR2F6_full (transient), cmpd/DMSO Renilla (Renilla; 2 uM): 1.0; NR2F6_full (stable, clone F4), cmpd/DMSO Renilla (Renilla; 10 uM): 1.1; NR2F6_full (transient), cmpd/DMSO Renilla (Renilla; 10 uM): 1.1; NR2F6_full (stable, clone F4), cmpd/DMSO Renilla (Renilla; 40 uM): 1.2; NR2F6_full (transient), cmpd/DMSO Renilla (Renilla; 40 uM): 1.1
Cc1ccc(NC(=O)c2n[nH]c3c2CC(C)CC3)cc1C (stereo not shown) [Compound Z96]	–	–	–	–	–	–	–	–	–	NR2F6_full (stable, clone F4), cmpd/DMSO Firefly (NR2F6; 2 uM): 2.9; NR2F6_full (transient), cmpd/DMSO Firefly (NR2F6; 2 uM): 2.4; NR2F6_full (stable, clone F4), cmpd/DMSO Firefly (NR2F6; 10 uM): 2.6; NR2F6_full (transient), cmpd/DMSO Firefly (NR2F6; 10 uM): 2.3; NR2F6_full (stable, clone F4), cmpd/DMSO Firefly (NR2F6; 40 uM): 2.6; NR2F6_full (transient), cmpd/DMSO Firefly (NR2F6; 40 uM): 2.4; NR2F6_full (stable, clone F4), cmpd/DMSO Renilla (Renilla; 2 uM): 1.3; NR2F6_full (transient), cmpd/DMSO Renilla (Renilla; 2 uM): 1.0; NR2F6_full (stable, clone F4), cmpd/DMSO Renilla (Renilla; 10 uM): 1.2; NR2F6_full (transient), cmpd/DMSO Renilla (Renilla; 10 uM): 1.0; NR2F6_full (stable, clone F4), cmpd/DMSO Renilla (Renilla; 40 uM): 1.2; NR2F6_full (transient), cmpd/DMSO Renilla (Renilla; 40 uM): 0.9
Cc1ccc(NC(=O)c2noc3c2CCCC3)cc1C [Compound C302]	1.2	0.9	0.9	0.7	1.1	1	1.8	1.4	0.8	–
Cc1ccc(NC(=O)c2noc3c2CCC3)cc1C [Compound C301]	1.2	1.0	1.0	1.1	0.7	1	2.4	1.6	1.1	–
Cc1ccc(NC(=O)c2noc3c2CC(C)CC3)cc1C (stereo not shown) [Compound E53]	1.0	1.1	1.4	0.9	0.8	1.1	1.5	1.4	1.6	cytotox effect (decreasing both renilla and firefly activity) (NR2F6; NR2F6 agonist activity confirmation): strong cytotox effect; increase of firefly activity (NR2F6; at 10 uM): 6 times; firefly signal over DMSO level (NR2F6; at 10 uM and 50 uM): ~3 times

More lines, main results first:

Firefly F4, cmpd/DMSO (mean) (NR2F6; 2 uM)	Firefly F4, cmpd/DMSO (mean) (NR2F6; 10 uM)	Firefly F4, cmpd/DMSO (mean) (NR2F6; 40 uM)	Compound	fold induction at 2 µM (Renilla; 2 uM)	fold induction at 10 µM (Renilla; 10 uM)	fold induction at 40 µM (Renilla; 40 uM)	fold induction at 2 µM (HEK293 pGL4)	fold induction at 10 µM (HEK293 pGL4)	fold induction at 40 µM (HEK293 pGL4)	other results
2.4	0.7	0.4	COC(=O)c1cnc2c(C)cc(C)cc2c1NCCCN(C)C [Compound Z81]	1.1	0.3	0.3	1.4	0.9	0.7	–
1.1	0.8	2.0	Cc1cc(C)n2nc(CNS(=O)(=O)c3c(F)c(F)c(F)c(F)c3F)nc2n1 [Compound Z55]	0.8	0.3	0.1	0.8	0.7	2.3	activity (in words) (NR2F6): particularly good activity
0.8	1.6	0.6	CCOC(=O)c1cnc2c(C)cc(C)cc2c1NCCCN(C)C [Compound Z54]	0.7	0.3	0.2	1.1	1.9	0.8	activity (in words) (NR2F6): particularly good activity
0.9	0.5	0.3	CCOC(=O)c1cnc2c(C)cc(C)cc2c1N1CCC(CO)CC1 [Compound Z79]	0.9	0.6	0.2	0.8	0.5	0.8	–
1.2	2.1	0.5	Cc1cc(C)nc(Sc2nnc(-c3ccc(C)c(S(=O)(=O)N4CCOCC4)c3)c3ccccc23)n1 [Compound Z56]	0.9	0.3	0.2	1.2	8.9	1.2	activity (in words) (NR2F6): particularly good activity
0.7	0.5	0.7	CCOC(=O)c1cnc2c(C)cc(C)cc2c1NCc1ccccc1 [Compound Z74]	0.8	0.2	0.3	0.7	0.6	0.7	–
0.7	2.5	0.4	CCOC(=O)c1cnc2c(C)cccc2c1NCCCN(C)C [Compound Z90]	0.9	0.2	0.1	0.7	2.4	0.7	–
1.0	1.1	1.3	Cc1cc(C)n2nc(CNS(=O)(=O)c3ccc(Cl)cc3)nc2n1 [Compound Z91]	1.1	1.1	0.8	1	1	1.1	–
1.2	0.6	0.7	Cc1cc(C)c2ncc(C(N)=O)c(NCCCN(C)C)c2c1 [Compound Z83]	1	0.8	0.3	1	0.9	0.5	–
